The values below come from article PMC12664493, “Asparagine endopeptidase (AEP) inhibitor formulation via zein-based nanoparticle improves the therapeutic efficacy toward Alzheimer's disease” (Neurotherapeutics, 2025).

For data set [1], the target named is T1, AEP (Mus musculus, UniProt O89017).
T1 construct: from tissue; host or cells: brain / hippocampus of 3xTg mice
T1 sequence (O89017 18-435): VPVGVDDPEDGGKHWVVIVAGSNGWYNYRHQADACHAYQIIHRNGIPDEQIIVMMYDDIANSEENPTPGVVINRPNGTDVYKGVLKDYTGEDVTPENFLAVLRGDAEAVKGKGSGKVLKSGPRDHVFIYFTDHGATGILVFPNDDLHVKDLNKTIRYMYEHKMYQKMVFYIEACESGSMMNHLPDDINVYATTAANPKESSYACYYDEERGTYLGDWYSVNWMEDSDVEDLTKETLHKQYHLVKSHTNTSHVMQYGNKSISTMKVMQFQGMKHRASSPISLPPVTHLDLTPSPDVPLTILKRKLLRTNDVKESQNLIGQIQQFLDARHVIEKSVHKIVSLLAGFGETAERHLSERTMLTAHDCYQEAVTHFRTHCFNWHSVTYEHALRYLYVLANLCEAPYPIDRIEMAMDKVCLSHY
Kind of data set: Chronic one-month oral treatment of 3xTg mice: AEP activation and substrate cleavage. Particulars: 7.5 mg/kg P.O. daily. It is filed as in vivo.

Data set [2] in a line: Plasma protein binding, mouse. It is filed as in vitro ADME.
Data set [3] concerns the target T2, P-glycoprotein (MDR1) (Homo sapiens, UniProt P08183).
T2 construct: expressed in transfected cells; host or cells: MDCKII
Kind of data set: MDR1-MDCKII permeability assay (P-glycoprotein efflux). It is filed as in vitro ADME. Particulars: dog, MDCK-MDR1; for Papp A→B: first value in brackets; for Papp B→A: second value in brackets.

For data set [4], the target named is hERG K+ channel (Homo sapiens, UniProt Q12809). Kind of data set: hERG inhibition assay. (In general: Block of hERG is tested as a sign of cardiac risk.)
Sequence of hERG K+ channel (Q12809 whole entry): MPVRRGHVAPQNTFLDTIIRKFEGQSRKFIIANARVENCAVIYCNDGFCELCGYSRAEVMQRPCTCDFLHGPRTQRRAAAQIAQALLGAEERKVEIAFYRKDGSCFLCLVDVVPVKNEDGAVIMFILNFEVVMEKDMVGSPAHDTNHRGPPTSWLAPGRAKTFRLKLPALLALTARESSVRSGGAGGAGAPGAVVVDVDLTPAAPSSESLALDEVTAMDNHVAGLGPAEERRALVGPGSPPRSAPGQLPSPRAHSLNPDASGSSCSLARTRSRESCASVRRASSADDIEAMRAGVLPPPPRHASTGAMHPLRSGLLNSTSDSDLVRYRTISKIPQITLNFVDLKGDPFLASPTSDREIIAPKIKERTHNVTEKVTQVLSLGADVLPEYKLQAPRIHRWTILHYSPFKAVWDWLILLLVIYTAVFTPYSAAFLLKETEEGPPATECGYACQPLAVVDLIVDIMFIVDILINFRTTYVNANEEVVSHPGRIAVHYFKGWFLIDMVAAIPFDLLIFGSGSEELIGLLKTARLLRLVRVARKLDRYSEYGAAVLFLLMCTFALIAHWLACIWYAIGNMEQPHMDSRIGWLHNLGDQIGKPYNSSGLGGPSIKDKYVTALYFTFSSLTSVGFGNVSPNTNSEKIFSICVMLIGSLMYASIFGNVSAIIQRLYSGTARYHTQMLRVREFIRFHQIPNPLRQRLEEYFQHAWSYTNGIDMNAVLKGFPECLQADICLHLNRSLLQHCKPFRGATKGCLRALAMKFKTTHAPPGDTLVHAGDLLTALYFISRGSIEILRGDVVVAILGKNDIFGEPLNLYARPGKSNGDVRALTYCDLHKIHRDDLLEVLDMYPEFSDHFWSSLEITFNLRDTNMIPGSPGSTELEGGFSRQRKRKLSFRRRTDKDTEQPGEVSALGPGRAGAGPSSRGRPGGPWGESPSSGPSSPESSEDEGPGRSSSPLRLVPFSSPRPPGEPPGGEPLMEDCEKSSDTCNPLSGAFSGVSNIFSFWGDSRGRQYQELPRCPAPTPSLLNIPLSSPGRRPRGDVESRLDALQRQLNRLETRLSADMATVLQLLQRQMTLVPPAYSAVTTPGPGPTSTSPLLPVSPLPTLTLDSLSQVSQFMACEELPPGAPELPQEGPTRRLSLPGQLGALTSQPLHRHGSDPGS
Data set [5] is described as follows: Solubility (pH 7.4, PBS). Type of data set: physicochemical.
For data set [6], the target named is T3, AEP (Rattus norvegicus, UniProt Q9R0J8).
T3 construct: endogenous in cells; host or cells: primary rat cortical neurons
T3 sequence (Q9R0J8 18-435): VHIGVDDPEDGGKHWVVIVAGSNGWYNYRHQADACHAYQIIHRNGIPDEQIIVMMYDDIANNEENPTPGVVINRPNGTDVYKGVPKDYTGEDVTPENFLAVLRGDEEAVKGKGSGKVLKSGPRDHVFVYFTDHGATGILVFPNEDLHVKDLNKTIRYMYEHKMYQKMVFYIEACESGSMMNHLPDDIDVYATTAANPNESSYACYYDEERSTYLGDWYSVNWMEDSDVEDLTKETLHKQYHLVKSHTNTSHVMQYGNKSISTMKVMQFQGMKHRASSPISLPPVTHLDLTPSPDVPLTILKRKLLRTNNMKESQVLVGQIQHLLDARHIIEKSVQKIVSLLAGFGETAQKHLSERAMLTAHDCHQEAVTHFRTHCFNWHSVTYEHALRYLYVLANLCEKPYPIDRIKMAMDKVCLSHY
Kind of data set: AEP inhibition in cultured primary neurons. Type of data set: cell-based.

The nature of data set [7]: Stability in human hepatocytes. It is filed as in vitro ADME. To be noted: for half-life: read-out: Stability-Hepatocytes T1/2.
Data set [8] in a line: Stability in rat hepatocytes. Type of data set: in vitro ADME.
In data set [9] the target is T1, AEP. Put plainly: Acute PD in 3xTg mice: brain AEP enzymatic activity and immunoblotting. Type of data set: in vivo. Particulars: 2 h. (In general: In western blotting, separated proteins are transferred to a membrane and probed.)
Data set [10] is described as follows: Stability in mouse plasma. Type of data set: in vitro ADME. To be noted: read-out: Stability-Plasma T1/2.
Data set [11] has as its system 3xTg mice. Kind of data set: Y-maze test in 3xTg mice. It is filed as in vivo, mouse. To be noted: 7.5 mg/kg P.O. daily, one month. From the text: Blood and brain tissues were collected at 0, 0.08, 0.25, 0.5, 1, 2, 4, and 8 h post-administration. For acute pharmacodynamic (PD) assessments, male and female 3xTg mice received oral doses of NP-11a-isopropyl at 7.5 mg/kg or 15 mg/kg, and blood and brain samples were collected 2 h after treatment.
The Y-maze test was employed to evaluate spatial working memory and spontaneous alternation behavior, a measure of natural exploratory pattern integrity. The apparatus comprised three symmetrical opaque arms (A, B, C; 30 cm length × 8 cm width × 15 cm height) intersecting at 120° angles to form a Y-shaped configuration. Mice were habituated to the maze during a 5-min acclimatization period to minimize novelty-induced anxiety. Following habituation, spontaneous exploration was recorded for 8 min using an overhead camera, with all trials conducted under consistent low-light conditions to reduce environmental stress. EthoVision XT 12 software (Noldus, Wageningen, The Netherlands) quantified total arm entries, entry sequences, and alternation patterns (consecutive entries into three distinct arms without repetition). The maze was thoroughly cleaned with 70 % ethanol between trials to eliminate olfactory cues.

Data set [12] is described as follows: Plasma and brain concentrations after acute oral treatment of 3xTg mice. Particulars: both sexes, mouse, plasma, 7.5 mg/kg, P.O. 7.5 mg/kg, read-out: Concentration in plasma, Serum Mean. It is filed as in vivo. From the text: Blood and brain tissues were collected at 0, 0.08, 0.25, 0.5, 1, 2, 4, and 8 h post-administration.
A short description of data set [13]: Stability in human plasma. It is filed as in vitro ADME. Particulars: read-out: Stability-Plasma T1/2.
The nature of data set [14]: Caco-2 permeability. To be noted: human; for Papp A→B: first value of the cell. It is filed as in vitro ADME. (In general: Caco-2 cells form a polarised layer with tight junctions and transporters.)
Data set [15] in a line: PAMPA-BBB permeability assay. Type of data set: in vitro ADME. Particulars: read-out: Permeability-PAMPA-BBB Pe.
Data set [16] can be described thus: Plasma protein binding, human. It is filed as in vitro ADME.
Data set [17] can be described thus: Stability in human liver microsomes. It is filed as in vitro ADME. To be noted: for half-life: read-out: Stability-Microsomes T1/2.
The nature of data set [18]: Stability in mouse liver microsomes. It is filed as in vitro ADME. Particulars: for half-life: read-out: Stability-Microsomes T1/2.
Details of data set [19]: method as in PMID 38030711. To be noted: cited from earlier work.
Data set [20] can be described thus: Stability in mouse hepatocytes. Type of data set: in vitro ADME.
Data set [21] deals with T4, recombinant AEP enzyme (Homo sapiens, UniProt Q99538).
T4 sequence (Q99538 18-433): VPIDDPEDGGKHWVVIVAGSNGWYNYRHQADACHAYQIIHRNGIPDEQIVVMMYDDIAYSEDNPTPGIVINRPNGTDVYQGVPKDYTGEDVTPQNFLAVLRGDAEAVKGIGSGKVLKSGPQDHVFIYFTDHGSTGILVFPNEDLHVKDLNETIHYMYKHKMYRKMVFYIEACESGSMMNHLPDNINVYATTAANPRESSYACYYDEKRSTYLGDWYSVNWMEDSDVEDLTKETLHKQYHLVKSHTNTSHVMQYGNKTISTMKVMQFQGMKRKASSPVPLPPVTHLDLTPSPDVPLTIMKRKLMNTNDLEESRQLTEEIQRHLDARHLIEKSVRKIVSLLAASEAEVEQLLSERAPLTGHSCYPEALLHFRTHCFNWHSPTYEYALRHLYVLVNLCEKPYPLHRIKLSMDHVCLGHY
Kind of data set: In vitro AEP enzymatic inhibition assay. It is filed as biochemical. Particulars: read-out: IC50 toward recombinant AEP enzyme (in vitro).
Method: AEP activity was assessed as previously described [21]. Tissue homogenates (10 ​μg protein) were incubated with 20 ​μM AEP-specific fluorogenic substrate in 200 ​μL of optimized assay buffer (20 ​mM citric acid, 60 ​mM Na2HPO4, 1 ​mM EDTA, 0.1 ​% CHAPS, 1 ​mM DTT; pH 6.0) to quantify enzymatic activity. Reactions were performed at 37 ​°C in a temperature-controlled microplate reader (BioTek Synergy HTX Multimode Reader, Agilent, California, USA). AEP-mediated cleavage of the substrate, liberating fluorescent 7-amino-4-methylcoumarin (AMC), was monitored kinetically by measuring emission at 460 ​nm (excitation: 380 ​nm) every 5 ​min over 60-min. Fluorescence values were normalized to background signal from substrate-free controls, and enzyme activity was calculated as the rate of AMC generation (RFU/min/μg protein) during the linear phase of the reaction.

The target in data set [22] is T5, BCRP (Homo sapiens, UniProt Q9UNQ0).
T5 construct: endogenous in cells; host or cells: Caco-2
T5 sequence (Q9UNQ0 1-655): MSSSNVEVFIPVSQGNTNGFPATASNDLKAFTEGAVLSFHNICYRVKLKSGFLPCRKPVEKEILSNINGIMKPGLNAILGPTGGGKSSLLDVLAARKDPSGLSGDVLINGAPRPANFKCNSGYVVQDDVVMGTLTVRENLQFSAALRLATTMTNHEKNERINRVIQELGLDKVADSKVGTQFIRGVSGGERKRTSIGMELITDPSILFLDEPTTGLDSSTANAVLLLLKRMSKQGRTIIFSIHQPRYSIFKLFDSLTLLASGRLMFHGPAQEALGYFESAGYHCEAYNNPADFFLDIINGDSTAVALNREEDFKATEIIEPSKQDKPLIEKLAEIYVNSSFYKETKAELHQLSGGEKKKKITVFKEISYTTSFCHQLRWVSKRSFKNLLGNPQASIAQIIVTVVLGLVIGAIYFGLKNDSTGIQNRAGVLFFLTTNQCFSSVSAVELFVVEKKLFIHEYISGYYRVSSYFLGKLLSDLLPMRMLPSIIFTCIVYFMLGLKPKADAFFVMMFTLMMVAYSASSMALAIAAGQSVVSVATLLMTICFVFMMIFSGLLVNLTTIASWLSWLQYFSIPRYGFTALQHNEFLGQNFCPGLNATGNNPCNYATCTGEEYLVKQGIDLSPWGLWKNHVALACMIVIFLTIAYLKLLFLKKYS
Put plainly: Caco-2-BCRP assay with and without Ko143. Type of data set: in vitro ADME. Particulars: human, Caco-2, Ko143 0 μM.

Where [23] appears, read: aqueous buffer, pH 7.4, read-out: Solubility (pH, media).
The mark [24] stands for this setting: read-out: Stability-Hepatocytes T1/2.

Like-named read-outs stand apart in the source and are kept apart here.

T2 sequence (P08183 whole entry): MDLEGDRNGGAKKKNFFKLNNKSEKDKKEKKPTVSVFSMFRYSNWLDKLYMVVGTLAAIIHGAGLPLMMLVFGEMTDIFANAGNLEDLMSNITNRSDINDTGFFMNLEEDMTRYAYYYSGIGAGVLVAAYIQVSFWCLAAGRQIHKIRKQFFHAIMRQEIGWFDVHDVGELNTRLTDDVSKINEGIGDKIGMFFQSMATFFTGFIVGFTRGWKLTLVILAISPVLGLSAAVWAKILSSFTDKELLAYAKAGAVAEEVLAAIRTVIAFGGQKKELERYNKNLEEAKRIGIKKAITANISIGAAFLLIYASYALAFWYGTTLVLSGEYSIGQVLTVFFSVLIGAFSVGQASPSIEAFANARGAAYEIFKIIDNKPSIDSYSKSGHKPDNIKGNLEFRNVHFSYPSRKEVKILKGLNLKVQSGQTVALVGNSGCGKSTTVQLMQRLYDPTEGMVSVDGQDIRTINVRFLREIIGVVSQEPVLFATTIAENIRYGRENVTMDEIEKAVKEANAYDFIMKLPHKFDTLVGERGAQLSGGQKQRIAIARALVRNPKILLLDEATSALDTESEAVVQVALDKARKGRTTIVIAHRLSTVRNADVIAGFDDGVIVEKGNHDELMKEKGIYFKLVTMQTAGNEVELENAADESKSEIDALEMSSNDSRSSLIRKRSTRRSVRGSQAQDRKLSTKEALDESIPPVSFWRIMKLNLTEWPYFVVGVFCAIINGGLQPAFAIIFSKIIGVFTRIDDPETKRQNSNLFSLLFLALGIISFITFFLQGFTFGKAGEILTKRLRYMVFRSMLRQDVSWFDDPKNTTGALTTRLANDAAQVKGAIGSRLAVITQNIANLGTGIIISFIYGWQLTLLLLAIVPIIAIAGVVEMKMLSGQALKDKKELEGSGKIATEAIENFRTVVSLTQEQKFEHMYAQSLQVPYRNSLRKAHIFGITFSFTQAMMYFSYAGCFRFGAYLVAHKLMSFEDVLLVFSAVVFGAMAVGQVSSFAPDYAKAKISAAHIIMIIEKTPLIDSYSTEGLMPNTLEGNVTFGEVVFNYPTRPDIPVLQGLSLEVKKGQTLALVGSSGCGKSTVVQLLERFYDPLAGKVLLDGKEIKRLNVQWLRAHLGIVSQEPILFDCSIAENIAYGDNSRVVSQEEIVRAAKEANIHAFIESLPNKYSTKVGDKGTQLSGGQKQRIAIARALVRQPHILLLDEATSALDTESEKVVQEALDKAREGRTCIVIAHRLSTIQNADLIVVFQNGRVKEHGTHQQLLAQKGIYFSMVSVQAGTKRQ

Take `CNc1nnc(Nc2cc(CO)c(N3CCOCC3)c3nonc23)s1` [11a]: in data set [1], the “AEP activation, APP N585 and Tau N368 fragmentation, hippocampus immunoblotting” value was “gradually reduced”. In addition, the figures for the “Plasma Protein F u, plasma(%)” value in [2] and in data set [16] were 26.9% and 43.3%, respectively. The Papp A→B (usually how fast a substance crosses the layer from the apical side) in data set [3] came to 0.78 ×10⁻⁶ cm/s; in data set [14], 10.6 ×10⁻⁶ cm/s. The Papp B→A – broadly, the apparent permeability from the basolateral to the apical side of a cell layer – in data set [3] stood at 29.2 ×10⁻⁶ cm/s. The “hERG IC50” value in [4] is “negative”. The solubility (commonly the concentration that dissolves in the medium under given conditions) in data set [5] (setting [23]) came to 150 mg/mL. Besides, 45 nM corresponded to half-maximal inhibition in [6] (IC50). Besides, the hepatocyte CLint (as a rule, the capacity of the preparation to metabolise the compound, expressed as a volume cleared per time) in [7] is 4.1 µL/min/1e6 cells; in [8], 3 µL/min/1e6 cells. Besides, the half-life in data set [7] was 5.67 h; in data set [8] (setting [24]), greater than 8 h; in [10], greater than 8 h; in data set [13], greater than 8 h; in data set [17], greater than 3 h; in [18], 1.93 h. Besides, the “AEP enzymatic activity in the brain” value in data set [9] (acute P.O. 7.5 and 15 mg/kg, dose-dependent) is “substantially inhibited”. Further, in [9] (acute P.O.), the “Active AEP band intensity, hippocampus immunoblotting” value is given as “reduced”. Also, the “Cognitive function in the Y maze” value in [11] is on record as “significantly improved”. Further, the concentration at 2 h in [12] is 161 ng/mL. Moreover, the Papp in data set [15] stood at 1.62 ×10⁻⁶ cm/s. Besides, the microsomal CLint (commonly the capacity of the preparation to metabolise the compound, expressed as a volume cleared per time) in data set [17] worked out at 12.8 µL/min/mg; in [18], 19.9 µL/min/mg. In addition, in [19] (11a at 10 mg/kg), the “Brain Cmax” value is recorded as 27.012 ng/mL. In addition, in [19] (oral administration), the “Brain AUC” value is reported as 128.980. The “Plasma AUC” value in data set [19] (oral administration) is 516.028.
As for `OCc1cc(Nc2nnc(N3CCCC3)s2)c2nonc2c1N1CCOCC1` [11a-pentyl], the results for the hepatocyte CLint in data set [20] and in [7] were 28.5 µL/min/1e6 cells and 31.3 µL/min/1e6 cells, respectively. Also, the half-life in [20] (setting [24]) was greater than 0.81 h; in data set [7], greater than 0.738 h; in data set [10], greater than 8 h; in [13] it was greater than 8 h; in data set [17], 0.508 h; in data set [18], 0.0765 h. Moreover, the “Plasma Protein F u, plasma(%)” value in [2] is 20%; in data set [16], 6.4%. The Papp A→B in data set [3] stood at 1.44 ×10⁻⁶ cm/s; in data set [14], 11.8 ×10⁻⁶ cm/s. The Papp B→A in data set [3] worked out at 60.5 ×10⁻⁶ cm/s; in data set [14] (value after the slash, head names only a-b, read-out: Permeability-Caco-2 Papp, second value of the cell (taken as b-a)), 14.8 ×10⁻⁶ cm/s. The efflux ratio in [3] (third value of the cell, not given, read-out: Permeability-MDR1-MDCKII, value after the brackets (efflux ratio)) turned out to be 42.1; in [14] it was 1.28. Moreover, the IC50 – broadly, the point on the concentration scale where inhibition reaches its midpoint – was greater than 10000 nM in data set [4], 55 nM in [6] and 14.7 nM in data set [21]. The solubility is 5.03 mg/mL in [5] (setting [23]) and 12.5 mM in data set [5] (pH 7.4, aqueous buffer, pH7.4, read-out: Solubility (pH, media)). For the same molecule, the Papp in [15] came to 10.4 ×10⁻⁶ cm/s. The values for the microsomal CLint in data set [17] and in [18] were 45.5 µL/min/mg and 302 µL/min/mg, respectively.
Molecule `CC(C)NCC(O)COc1cccc2ccccc12` (centres unmarked) [Propranolol, reference compound] had a Papp A→B in data set [22] of 29.3 ×10⁻⁶ cm/s. The molecule further gave an apparent permeability from basolateral to apical (Papp B→A) in data set [22] of 30.5 ×10⁻⁶ cm/s. For the same molecule, the recovery in data set [22] (read-out: Recovery (%) A→B) amounted to 93.5%; in data set [22] (read-out: Recovery (%) B→A), 102%.
The corresponding values for `CC(C)(C)NCC(O)COc1cccc2c1CC(O)C(O)C2` (centres unmarked) [Nadolol, reference compound] are 0.272 ×10⁻⁶ cm/s, 0.679 ×10⁻⁶ cm/s, 91.5% and 106%.
